The record followed here is patent publication US10392383B2, “3-(1H-benzo[d]imidazol-2-yl)-1H-pyrazolo[4,3-b]pyridines and therapeutic uses thereof” (Samumed, LLC, priority 2015, dated 2019).

Experiment [1] concerns primary human mesenchymal stem cells (hMSCs). The experiment is described as follows: Induction of chondrogenesis in human mesenchymal stem cells (nodule staining with Rhodamine B / Nile Red). The class given is cell-based. As to conditions: for Emax: TGF-β3 (10 ng/mL) as positive control, read-out: Max. Activity as % TGF-β3 activity; for EC50: concentration required to induce 50% levels of chondrogenesis vs TGF-β3, read-out: Conc (nM) of 50% TGF-β3 activity. On the procedure: Representative compounds were screened using primary human mesenchymal stem cells (hMSCs) to determine their ability to induce chondrogenesis (process by which cartilage is developed).
Human Mesenchymal Stem Cell Culture: Primary human mesenchymal stem cells (hMSCs) were purchased from Lonza (Walkersville, Md.) and expanded in Mesenchymal Stem Cell Growth Media (Lonza). Cells between passage 3 and 6 were used for the experiments.
Compound Screening: Each compound was dissolved in DMSO as a 10 mM stock and used to prepare compound source plates. For the 96 well assay, serial dilution (1:3, 6-point dose-response curves from 2700 nM to 10 nM) and compound transfer was performed using the ECHO 550 (Labcyte, Sunnyvale, Calif.) into 96-well clear bottom assay plates (Greiner Bio-One) with appropriate DMSO backfill for a final DMSO concentration of 0.03%. hMSCs were plated at 20,000 cells/well in 250 μL/well Incomplete Chondrogenic Induction Medium (Lonza; DMEM, dexamethasone, ascorbate, insulin-transferrin-selenium [ITS supplement], gentamycin-amphotericin [GA-1000], sodium pyruvate, proline and L-glutamine). TGF-β3 (10 ng/mL) was used as a positive control for differentiation while negative control wells were treated with 75 nL DMSO for normalization and calculating EC50 values. For the 384 well assay, serial dilution (1:3, 8-point dose-response curves from 5000 nM to 2.2 nM) and compound transfer was performed using the ECHO 550 (Labcyte, Sunnyvale, Calif.) into 384-well clear bottom assay plates (Greiner Bio-One) with appropriate DMSO backfill for a final DMSO concentration of 0.03%. hMSCs were plated at 8,000 cells/well in 80 μL/well Incomplete Chondrogenic Induction Medium (Lonza; DMEM, dexamethasone, ascorbate, insulin-transferrin-selenium [ITS supplement], gentamycin-amphotericin [GA-1000], sodium pyruvate, proline and L-glutamine). TGF-β3 (10 ng/mL) was used as a positive control for differentiation while negative control wells were treated with 25 nL DMSO for normalization and calculating EC50 values. Cells were incubated at 37° C. and 5% CO2 for 6 days. To image chondrogenic nodules, the cells were fixed using 4% formaldehyde (Electron Microscopy Sciences), and stained with 2 μg/mL Rhodamine B (Sigma-Aldrich) and 20 μM Nile Red (Sigma-Aldrich) [Johnson K., et. al, A Stem Cell-Based Approach to Cartilage Repair, Science, (2012), 336(6082), 717-721]. The nodules imaged (25 images per well for 96 well plates and 9 images per well for 384 well plates at 10× magnification) by excitation at 531 nm and emission at 625 nm and quantified using the CellInsight CX5 (Thermo Scientific). Area of nodules in each well was normalized to the average of 3 DMSO treated wells on the same plate using Excel (Microsoft Inc.). The normalized averages (fold change over DMSO) of 2 or 3 replicate wells for each compound concentration were calculated. Due to solubility limitations of some of the compounds, curve fitting was incomplete leading to inaccurate EC50 determinations.
Using TGF-β3 as a positive control, the concentration of representative compounds required to induce 50% levels of chondrogenesis is reported. In addition, the maximum activity of each compound and the respective dose that each compound reached maximum chondrogenesis activity is reported.

For experiment [2], the system named is IL-6 (THP-1 cells). The experiment is described as follows: IL-6 inhibition in LPS-stimulated THP-1 monocytes (HTRF). The class given is cell-based. Conditions: Homo sapiens, IL-6 HTRF; for EC50: 500 ng/mL LPS, Table 6; for inhibition at 10 µM: LPS, Table 6, read-out: percent inhibition at 10 μM (given in parentheses for EC50 >10 μM). In outline:
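THP-1 cells in 1% FBS pre-incubated 2 h with compound (10-point 1:3 series from 10 μM, 0.1% DMSO), then stimulated with 500 ng/mL LPS for 22 h at 37 °C. IL-6 measured by HTRF 665/620 ratio, normalized to DMSO; EC50 by four-parameter fit, or % inhibition at 10 μM when EC50 >10 μM.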

For `O=C(Nc1cncc(-c2ccc3[nH]nc(-c4nc5c(-c6ccc(F)cc6)cccc5[nH]4)c3n2)c1)C1CCC1` [Compound 49, N-(5-(3-(4-(4-Fluorophenyl)-1H-benzo[d]imidazol-2-yl)-1H-pyrazolo[4,3-b]pyridin-5-yl)pyridin-3-yl)cyclobutanecarboxamide], in experiment [1], the Emax stood at 69% and the EC50 came out at 30 nM. In addition, in experiment [2], the EC50 was greater than 10000 nM and the inhibition (usually the share of the control response that was lost under treatment) at 10 µM was determined as 43.6%.

`CN1CCN(c2cccc3[nH]c(-c4n[nH]c5ccc(-c6cncc(NC(=O)C(F)(F)F)c6)nc45)nc23)CC1` [Compound 1127, 2,2,2-Trifluoro-N-(5-(3-(4-(4-methylpiperazin-1-yl)-1H-benzo[d]imidazol-2-yl)-1H-pyrazolo[4,3-b]pyridin-5-yl)pyridin-3-yl)acetamide]: the Emax in experiment [1] was 51%. For the same compound, the values for the EC50 in experiment [1] and in experiment [2] were 30 nM and 7090 nM, respectively.

Take `Fc1ccc(-c2cccc3[nH]c(-c4n[nH]c5ccc(-c6cncnc6)nc45)nc23)cc1` [Compound 55, 3-(4-(4-Fluorophenyl)-1H-benzo[d]imidazol-2-yl)-5-(pyrimidin-5-yl)-1H-pyrazolo[4,3-b]pyridine]: in experiment [1], the Emax came out at 96% and the EC50 stood at 10 nM. In addition, in experiment [2], the EC50 was greater than 10000 nM and the inhibition at 10 µM came out at 38.8%.

As for `O=C(Cc1ccccc1)Nc1cncc(-c2ccc3[nH]nc(-c4nc5c(-c6ccncc6)cccc5[nH]4)c3n2)c1` [Compound 122, 2-Phenyl-N-(5-(3-(4-(pyridin-4-yl)-1H-benzo[d]imidazol-2-yl)-1H-pyrazolo [4,3-b]pyridin-5-yl)pyridin-3-yl)acetamide], in experiment [1], the Emax worked out at 75% and the EC50 was 300 nM. In experiment [2], the EC50 was greater than 10000 nM and the inhibition at 10 µM came to 40.3%.

Consider `Fc1cccc(-c2cccc3[nH]c(-c4n[nH]c5ccc(-c6cnccn6)nc45)nc23)c1` [Compound 520, 3-(4-(3-Fluorophenyl)-1H-benzo[d]imidazol-2-yl)-5-(pyrazin-2-yl)-1H-pyrazolo[4,3-b]pyridine], for which, in experiment [1], the Emax was found to be 64% and the EC50 is 2 nM. In experiment [2], the EC50 is greater than 10000 nM and the inhibition at 10 µM was found to be 43.3%.

Take `CC(C)C(=O)Nc1cncc(-c2ccc3[nH]nc(-c4nc5c(-c6cccnc6)cccc5[nH]4)c3n2)c1` [Compound 93, N-(5-(3-(4-(Pyridin-3-yl)-1H-benzo[d]imidazol-2-yl)-1H-pyrazolo[4,3-b]pyridin-5-yl)pyridin-3-yl)isobutyramide]: the Emax in experiment [1] stood at 36%. Besides, in experiment [2], the EC50 is greater than 10000 nM and the inhibition at 10 µM came out at 42.5%.
